The target in this assay is T1, EED (1-441)-His protein (Homo sapiens, UniProt O75530).
T1 construct: 20 nM EED (1-441)-His protein
Briefly: EED-H3K27Me3 peptide competition binding assay by AlphaScreen. To be noted: read-out: Alpha screen. Put shortly: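 Readout was AlphaScreen emission at 615 nm after 680 nm excitation, with 10 μg/ml final each of streptavidin donor and nickel chelate acceptor beads, 1 h at RT in the dark. Beforehand, compound met the His-tagged EED(1-441) for 15 min and then biotinylated H3K27Me3(19-33) peptide for 30 min; both were added as 20 nM solutions, buffer 25 mM HEPES pH 8, Tween-20, BSA. Percent activity left was fitted to give IC50.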

Read-outs that look alike come from different tables or passages of the source.

T1 sequence (O75530 whole entry): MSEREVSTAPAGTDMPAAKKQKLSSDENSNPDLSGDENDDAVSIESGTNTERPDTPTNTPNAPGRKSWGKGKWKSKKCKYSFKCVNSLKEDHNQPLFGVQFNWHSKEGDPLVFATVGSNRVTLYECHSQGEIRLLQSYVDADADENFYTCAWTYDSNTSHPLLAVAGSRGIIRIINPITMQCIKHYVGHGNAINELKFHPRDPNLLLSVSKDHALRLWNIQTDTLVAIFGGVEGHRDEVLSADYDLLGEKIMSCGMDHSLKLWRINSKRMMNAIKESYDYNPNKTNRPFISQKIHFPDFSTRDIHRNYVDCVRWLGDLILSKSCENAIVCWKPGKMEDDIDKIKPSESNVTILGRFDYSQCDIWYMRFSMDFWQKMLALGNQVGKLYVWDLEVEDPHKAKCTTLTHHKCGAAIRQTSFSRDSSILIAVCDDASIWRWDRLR

Take `Cc1ccc2c(n1)CS(=O)(=O)c1ncn3c(NCc4c(F)ccc5c4CCO5)ncc-2c13` [Compound 95, 11-(((5-fluoro-2,3-dihydrobenzofuran-4-yl)methyl)amino)-6-methyl-4H-3-thia-2,5,10,11a-tetraazadibenzo[cd,f]azulene 3,3-dioxide]: for the setting “Table 4A”, the IC50 came out at 13.1 nM.
For the compound `O=S1(=O)CCc2cc(F)ccc2-c2cnc(NCc3c(F)ccc4c3CCO4)n3cnc1c23` [Compound 96, 7-fluoro-12-(((5-fluoro-2,3-dihydrobenzofuran-4-yl)methyl)amino)-4,5-dihydro-3-thia-2,11,12a-triazabenzo[4,5]cycloocta[1,2,3-cd]indene 3,3-dioxide], the IC50 (Table 4A) stood at 21.9 nM.
Same read-out and setting: under `O=C1c2ncn3c(NCc4c(F)ccc5c4CCO5)ncc(c23)-c2ccc(C(F)(F)F)nc2CN1C1CCOCC1` [Compound 51, 12-(((5-fluoro-2,3-dihydrobenzofuran-4-yl)methyl)amino)-4-(tetrahydro-2H-pyran-4-yl)-7-(trifluoromethyl)-4,5-dihydro-3H-2,4,6,11, 12a-pentaazabenzo [4,5]cycloocta[1,2,3-cd]inden-3-one] stands 0.7 nM; under `CC(F)(F)CN1Cc2cc(C(F)(F)F)ccc2-c2cnc(NCc3c(F)ccc4c3CCO4)n3cnc(c23)C1=O` [Compound 63, 4-(2,2-difluoropropyl)-12-(((5-fluoro-2,3-dihydrobenzofuran-4-yl)methyl)amino)-7-(trifluoromethyl)-4,5-dihydro-3H-2,4,11,12a-tetraazabenzo[4,5] cycloocta[1,2,3-cd]inden-3-one], 1.89 nM; under `CC(C)(F)CN1Cc2cc(C(F)(F)F)ccc2-c2cnc(NCc3c(F)ccc4c3CCO4)n3cnc(c23)C1=O` [Compound 62, 12-(((5-fluoro-2,3-dihydrobenzofuran-4-yl)methyl)amino)-4-(2-fluoro-2-methylpropyl)-7-(trifluoromethyl)-4,5-dihydro-3H-2,4, 11,12a-tetraazabenzo [4,5]cycloocta[1,2,3-cd]inden-3-one], 1.44 nM.
With `Cn1ncc2c1CNC(=O)c1ncn3c(NCc4c(F)ccc5c4CCO5)ncc-2c13` [Compound 53, 11-(((5-fluoro-2,3-dihydrobenzofuran-4-yl)methyl)amino)-6-methyl-5,6-dihydro-2,4,6,7,10,11a-hexaazacyclopenta[4,5]cycloocta[1,2,3-cd]inden-3(4H)-one], the IC50 (Table 4A) worked out at 3.96 nM.
Still for that read-out and setting: under `O=C1c2ncn3c(NCc4c(F)ccc5c4CCO5)ncc(c23)-c2ccc(C(F)(F)F)nc2CN1C1CC1` [Compound 41, 4-cyclopropyl-12-(((5-fluoro-2,3-dihydrobenzofuran-4-yl)methyl)amino)-7-(trifluoromethyl)-4,5-dihydro-3H-2,4,6,11,12a-pentaazabenzo[4,5] cycloocta[1,2,3-cd]inden-3-one] stands 0.6 nM.
As for `O=C1c2ncn3c(NCc4c(F)ccc5c4CCO5)ncc(c23)-c2ccsc2CN1C1CC1` [Compound 88, 4-cyclopropyl-11-(((5-fluoro-2,3-dihydrobenzofuran-4-yl)methyl)amino)-4,5-dihydro-3H-6-thia-2,4, 10,11a-tetraazacyclopenta[4,5]cycloocta[1,2,3-cd] inden-3-one], the IC50 (Table 4A) is 12.3 nM.
In the case of `O=C1c2ncn3c(NCc4c(F)ccc5c4CCO5)ncc(c23)-c2ccc(C3COCCO3)nc2CN1CC(F)(F)F` (stereo not drawn) [E 48, 7-(1,4-dioxan-2-yl)-12-(((5-fluoro-2,3-dihydrobenzo-furan-4-yl)methyl)amino)-4-(2,2,2-trifluoroethyl)-4,5-dihydro-3H-2,4,6, 11,12a-pentaazabenzo[4,5] cycloocta[1,2,3-cd]inden-3-one], the IC50 (IC50 class, Table 4B) is below 10 nM.
Still for that read-out and setting: for `CC(C)N1Cc2cc(C(F)F)ncc2-c2cnc(NCc3c(F)ccc4c3CCO4)n3cnc(c23)C1=O` [E 11, 7-(difluoromethyl)-12-(((5-fluoro-2,3-dihydro-benzofuran-4-yl)methyl)amino)-4-isopropyl-4,5-dihydro-3H-2,4,8,11,12a-pentaazabenzo[4,5] cycloocta[1,2,3-cd]inden-3-one] the value was below 10 nM; for `CC(C)c1ccc2c(n1)CN(CC(F)F)C(=O)c1ncn3c(NCc4c(F)ccc5c4CCO5)ncc-2c13` [E 47, 4-(2,2-difluoroethyl)-12-(((5-fluoro-2,3-dihydrobenzofuran-4-yl)methyl)amino)-7-isopropyl-4,5-dihydro-3H-2,4,6,11,12a-pentaazabenzo[4,5]cycloocta[1,2,3-cd]inden-3-one], below 10 nM.
In the case of `O=C1c2ncn3c(NCc4c(F)ccc5c4CCO5)ncc(c23)-c2ccc(C(F)(F)F)nc2CN1CC1(O)CC1` [Compound 44, 12-(((5-fluoro-2,3-dihydrobenzofuran-4-yl)methyl)amino)-4-((1-hydroxycyclopropyl)methyl)-7-(trifluoromethyl)-4,5-dihydro-3H-2,4,6,11,12a-pentaazabenzo[4,5]cycloocta[1,2,3-cd]inden-3-one], the IC50 (Table 4A) was found to be 1.34 nM.
Still for that read-out and setting: for `COc1cccc(F)c1CNc1ncc2c3c(ncn13)C(=O)N(C1CC1)Cc1nc(C(F)(F)F)ccc1-2` [Compound 69, 4-cyclopropyl-12-((2-fluoro-6-methoxybenzyl)amino)-7-(trifluoromethyl)-4,5-dihydro-3H-2,4,6, 11,12a-pentaazabenzo[4,5]cycloocta[1,2,3-cd] inden-3-one] the value was 19.8 nM.
The same measure, in the same setting: under `O=C1OCc2ccccc2-c2cnc(NCc3c(F)ccc4c3CCO4)n3cnc1c23` [Compound 6, 12-(((5-fluoro-2,3-dihydrobenzofuran-4-yl)methyl)amino)-3H,5H-4-oxa-2,11,12a-triazabenzo[4,5] cycloocta[1,2,3-cd]inden-3-one] stands 0.19 nM.
As for `Cc1cnc2n1Cc1cc(C(F)(F)F)ncc1-c1cnc(NCc3c(F)ccc4c3CCO4)n3cnc-2c13` [E 10, N-((5-fluoro-2,3-dihydrobenzofuran-4-yl)methyl)-5-methyl-8-(trifluoromethyl)-6H-2,3,5a,9,12,13a-hexaazabenzo[4,5]cyclopenta[7,8]cycloocta[1,2,3-cd]inden-13-amine], the IC50 (IC50 class, Table 4B) is below 10 nM.
As for `O=C1c2ncn3c(NCc4c(F)ccc5c4CCO5)ncc(c23)-c2ccc(C(F)(F)F)cc2CN1CC(F)(F)F` [Compound 83, 12-(((5-fluoro-2,3-dihydrobenzofuran-4-yl)methyl)amino)-4-(2,2,2-trifluoroethyl)-7-(trifluoromethyl)-4,5-dihydro-3H-2,4,11,12a-tetraazabenzo[4,5] cycloocta[1,2,3-cd]inden-3-one], the IC50 (Table 4A) amounted to 9.95 nM.
As to `O=C1c2ncn3c(NCc4c(F)ccc5c4CCO5)ncc(c23)-c2ccc(C3CCC3)nc2CN1CC(F)(F)F` [E 52, 7-cyclobutyl-12-(((5-fluoro-2,3-dihydrobenzofuran-4-yl)methyl)amino)-4-(2,2,2-trifluoroethyl)-4,5-dihydro-3H-2,4,6,11,12a-pentaazabenzo[4,5] cycloocta[1,2,3-cd]inden-3-one], where the note is “IC50 class, Table 4B”, the IC50 was below 10 nM.
Still for that read-out and setting: for `Fc1ccc2c(c1CNc1ncc3c4c(ncn14)-c1nccn1Cc1cc(C(F)(F)F)ncc1-3)CCO2` [E 33, N-((5-fluoro-2,3-dihydrobenzofuran-4-yl)methyl)-8-(trifluoromethyl)-6H-2,3,5a,9,12,13a-hexaaza-benzo[4,5]cyclopenta[7,8]cycloocta[1,2,3-cd]inden-13-amine] the value was 10 to 100 nM.
For the compound `O=C1c2ncn3c(NCc4c(F)ccc5c4CCO5)ncc(c23)-c2cnc(C(F)(F)F)cc2CN1CCF` [Compound 72, 12-(((5-fluoro-2,3-dihydrobenzofuran-4-yl)methyl)amino)-4-(2-fluoroethyl)-7-(trifluoromethyl)-4,5-dihydro-3H-2,4,8,11,12a-pentaazabenzo[4,5] cycloocta[1,2,3-cd]inden-3-one], where the note is “Table 4A”, the IC50 came out at 2.69 nM.
Consider `Cc1ccc2c(n1)CNC(=O)c1ncn3c(NCc4c(F)ccc5c4CCO5)ncc-2c13` [Compound 21, 12-(((5-fluoro-2,3-dihydrobenzofuran-4-yl)methyl)amino)-7-methyl-4,5-dihydro-3H-2,4,6,11,12a-pentaazabenzo[4,5]cycloocta[1,2,3-cd]inden-3-one], for which the IC50 (Table 4A) turned out to be 0.55 nM.
The same measure, in the same setting: under `O=C1OCc2ccc(C(F)(F)F)cc2-c2cnc(NCc3c(F)ccc4c3CCO4)n3cnc1c23` [Compound 24, 12-(((5-fluoro-2,3-dihydrobenzofuran-4-yl)methyl)amino)-8-(trifluoromethyl)-3H,5H-4-oxa-2,11,12a-triazabenzo[4,5]cycloocta[1,2,3-cd]inden-3-one] stands 4.75 nM.
Same read-out and setting: under `O=C1c2ncn3c(NCc4c(F)ccc5c4CCO5)ncc(c23)-c2ccc(C(F)(F)F)cc2CN1CC1CCOCC1` [Compound 66, 12-(((5-fluoro-2,3-dihydrobenzofuran-4-yl)methyl)amino)-4-((tetrahydro-2H-pyran-4-yl)methyl)-7-(trifluoromethyl)-4,5-dihydro-3H-2,4,11,12a-tetra-azabenzo[4,5]cycloocta[1,2,3-cd]inden-3-one] stands 3.61 nM; under `O=C1c2ncn3c(NCc4c(F)ccc5c4CCO5)ncc(c23)-c2cnc(C(F)(F)F)cc2CN1C1CC1` [Compound 36, 4-cyclopropyl-12-(((5-fluoro-2,3-dihydrobenzofuran-4-yl)methyl)amino)-7-(trifluoromethyl)-4,5-dihydro-3H-2,4,8,11,12a-pentaazabenzo[4,5]cycloocta[1,2,3-cd]inden-3-one], 1.44 nM; under `O=C1c2ncn3c(NCc4c(F)ccc5c4CCO5)ncc(c23)-c2ccc(C(F)(F)F)nc2CN1CC1CCOC1` (stereo not drawn) [Compound 52, 12-(((5-fluoro-2,3-dihydrobenzofuran-4-yl)methyl)amino)-4-((tetrahydrofuran-3-yl)methyl)-7-(trifluoro-methyl)-4,5-dihydro-3H-2,4,6,11,12a-pentaaza benzo[4,5]cycloocta[1,2,3-cd]inden-3-one], 0.7 nM.

Values taken from US20240316051A1, “A PHARMACEUTICAL COMBINATION AND USE THEREOF” (Ascentage Pharma (Suzhou) Co., Ltd., priority 2021, published 2024).
